The record followed here is patent US12692221B2 (priority 2024, dated 2026).

One experiment deals with T1, AR (h) (Homo sapiens, UniProt P10275, T878A).
T1 construct: human endog; endogenous in cells; host or cells: LNCaP cells
T1 sequence (P10275 1-920 T878A): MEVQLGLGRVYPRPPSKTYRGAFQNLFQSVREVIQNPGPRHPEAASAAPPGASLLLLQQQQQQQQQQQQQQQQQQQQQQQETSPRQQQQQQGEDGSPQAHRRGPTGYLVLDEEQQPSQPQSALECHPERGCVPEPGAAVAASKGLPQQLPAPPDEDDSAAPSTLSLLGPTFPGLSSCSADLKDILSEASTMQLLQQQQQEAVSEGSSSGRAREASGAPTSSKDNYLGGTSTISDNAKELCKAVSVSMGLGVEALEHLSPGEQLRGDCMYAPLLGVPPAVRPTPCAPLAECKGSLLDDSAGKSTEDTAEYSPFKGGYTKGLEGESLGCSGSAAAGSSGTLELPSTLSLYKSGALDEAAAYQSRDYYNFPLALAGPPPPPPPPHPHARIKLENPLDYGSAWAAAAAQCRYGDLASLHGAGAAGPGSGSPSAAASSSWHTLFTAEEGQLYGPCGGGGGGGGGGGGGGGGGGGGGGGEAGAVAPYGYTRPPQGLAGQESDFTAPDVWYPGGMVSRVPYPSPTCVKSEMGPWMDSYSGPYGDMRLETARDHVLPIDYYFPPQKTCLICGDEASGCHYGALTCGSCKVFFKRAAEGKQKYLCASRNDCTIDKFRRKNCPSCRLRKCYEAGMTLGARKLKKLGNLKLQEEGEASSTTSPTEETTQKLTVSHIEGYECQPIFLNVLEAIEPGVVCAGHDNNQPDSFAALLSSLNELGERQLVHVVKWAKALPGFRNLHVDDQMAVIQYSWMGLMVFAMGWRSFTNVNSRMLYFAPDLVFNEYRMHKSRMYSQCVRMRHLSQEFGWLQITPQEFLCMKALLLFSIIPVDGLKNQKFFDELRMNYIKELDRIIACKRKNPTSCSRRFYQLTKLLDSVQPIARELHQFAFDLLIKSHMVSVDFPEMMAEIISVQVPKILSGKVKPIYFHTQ
Briefly: Radioligand binding AR (h) (agonist radioligand), [^3H]methyltrienolone, LNCaP cells.

A further experiment addresses T2, 5-HT2C (Homo sapiens, UniProt P28335).
T2 construct: host or cells: HEK293
Briefly: cell-based. As to conditions: IP-1 accumulation.

For the next experiment, the target named is T3, 5-HT2C (h) (Homo sapiens, UniProt P28335).
T3 construct: host or cells: HEK-293 cells
T3 sequence (P28335 33-458): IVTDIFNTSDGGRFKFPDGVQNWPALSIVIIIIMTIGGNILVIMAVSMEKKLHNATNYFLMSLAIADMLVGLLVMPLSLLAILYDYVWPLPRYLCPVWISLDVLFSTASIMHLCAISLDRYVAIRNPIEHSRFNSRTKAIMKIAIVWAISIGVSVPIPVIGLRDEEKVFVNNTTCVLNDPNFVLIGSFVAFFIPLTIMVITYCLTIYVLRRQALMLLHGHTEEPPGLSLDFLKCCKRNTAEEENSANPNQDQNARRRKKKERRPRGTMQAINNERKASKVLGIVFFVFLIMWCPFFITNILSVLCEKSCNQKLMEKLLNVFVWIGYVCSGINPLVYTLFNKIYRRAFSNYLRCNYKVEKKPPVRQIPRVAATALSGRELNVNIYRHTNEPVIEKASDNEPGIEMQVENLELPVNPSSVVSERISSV
Briefly: Radioligand binding 5-HT2C (h) (agonist radioligand), [^125I](±)DOI, HEK-293 cells.

For a further experiment, the target named is T4, 5-HT2A (h) (Homo sapiens, UniProt P28223).
T4 construct: host or cells: HEK-293 cells
T4 sequence (P28223 whole entry, looked up): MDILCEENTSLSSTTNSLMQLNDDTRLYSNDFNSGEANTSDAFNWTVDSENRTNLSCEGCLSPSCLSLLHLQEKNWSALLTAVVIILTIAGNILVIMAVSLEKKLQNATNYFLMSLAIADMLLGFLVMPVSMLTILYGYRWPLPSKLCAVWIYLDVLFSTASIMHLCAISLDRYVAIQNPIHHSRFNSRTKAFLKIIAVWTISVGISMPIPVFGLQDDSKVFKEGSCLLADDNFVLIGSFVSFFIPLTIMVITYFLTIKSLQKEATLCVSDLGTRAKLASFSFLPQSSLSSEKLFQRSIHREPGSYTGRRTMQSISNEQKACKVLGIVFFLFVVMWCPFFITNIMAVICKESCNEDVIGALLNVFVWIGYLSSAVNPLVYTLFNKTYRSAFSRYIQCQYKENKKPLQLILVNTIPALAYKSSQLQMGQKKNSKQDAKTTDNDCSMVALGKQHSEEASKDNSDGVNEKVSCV
Briefly: Radioligand binding 5-HT2A (h) (agonist radioligand), [^125I](±)DOI, HEK-293 cells.

A further experiment addresses T5, 5-HT2B (h) (Homo sapiens, UniProt P41595).
T5 construct: host or cells: CHO cells
The experiment is described as follows: Radioligand binding 5-HT2B (h) (agonist radioligand), [^125I](±)DOI, CHO cells.

Experiment [1] relates to Balb/c mice sensitized to OVA. Briefly: Airway hyperresponsiveness in OVA-induced murine allergic asthma, whole-body plethysmography with methacholine challenge. The experiment is classed as in vivo, mouse. As to conditions: 0.5 mg/kg intraperitoneal + OVA, measured 48 hours after final OVA exposure. The method, then:
Methods: Experiments were conducted in accordance with the methods of Flanagan et al., ACS Pharmacol Transl Sci. 2020 Aug. 13; 4(2):488-502 with modifications. Briefly, Balb/c mice were sensitized to OVA via IP injection. Mice were then exposed repeatedly to aerosolized OVA to induce acute allergic airway inflammation. Airway responsiveness was assessed using non-invasive whole-body plethysmography (WBP) and methacholine challenge. Lung tissue was analyzed to quantify inflammation and mucus production.
Mice were separated into three experimental groups: 1) Naive mice were not exposed to OVA sensitization and challenge, 2) OVA mice were sensitized and challenged with the allergen OVA to induce allergic airway inflammation and hyperresponsiveness, and 3) 0.5 mg/kg exemplary compound+OVA. The exemplary compound was administered to mice via intraperitoneal injection. Respiratory parameters were measured 48 hours after the final OVA exposure. Airway responsiveness to methacholine was measured using noninvasive whole-body plethysmography (WBP) in unrestrained mice.
Baseline PenH values were recorded for each experimental group, followed by exposure to aerosolized saline or increasing concentrations of methacholine, to assess the sensitivity and reactivity of airways due to its bronchoconstricting activity. PenH values were recorded, and data were analyzed using software. […]

T5 sequence (P41595 whole entry): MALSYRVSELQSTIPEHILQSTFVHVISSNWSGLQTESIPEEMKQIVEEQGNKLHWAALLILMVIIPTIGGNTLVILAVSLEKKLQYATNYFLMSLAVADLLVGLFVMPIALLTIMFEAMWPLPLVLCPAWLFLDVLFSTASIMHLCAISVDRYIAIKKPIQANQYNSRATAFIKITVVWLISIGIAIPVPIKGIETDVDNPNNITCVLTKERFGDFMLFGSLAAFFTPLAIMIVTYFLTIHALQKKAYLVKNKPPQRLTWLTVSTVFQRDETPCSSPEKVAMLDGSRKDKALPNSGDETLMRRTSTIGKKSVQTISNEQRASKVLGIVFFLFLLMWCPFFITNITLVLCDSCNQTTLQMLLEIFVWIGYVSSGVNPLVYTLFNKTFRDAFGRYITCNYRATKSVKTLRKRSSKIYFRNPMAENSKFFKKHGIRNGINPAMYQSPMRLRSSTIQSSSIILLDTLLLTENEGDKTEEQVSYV

`COCc1cc(CCN)c(O)cc1CC(C)C` [2CiBu-2OH-5MM, 2-(2-aminoethyl)-5-isobutyl-4-(methoxymethyl)phenol]: the “Mean Percent Inhibition of Control Specific Binding” value (from here on “Mean Percent Inhibition”) on AR (h) was −9.9%.
For the compound `COCCc1cc(CCN)c(OC)cc1Br` [Compound 2CB-5ME, reference compound], the EC50 (usually the concentration giving half of the maximal effect) on 5-HT2C worked out at 265 nM. The “Mean Percent Inhibition” value at 5-HT2C (h) (5-HT2C(h) (agonist radioligand)) was 99.3%; on 5-HT2A (h) (5-HT2A(h) (agonist radioligand)) it was 98.8%; at AR (h), −7.7%; on 5-HT2B (h) (5-HT2B(h) (agonist radioligand)), 104.1%.
In the case of `COCc1cc(CCN)c(OC)cc1CC(C)C` [Compound 2CiBu-5MM, 2-[4-isobutyl-2-methoxy-5-(methoxymethyl)phenyl]ethanamine], the results for the IC50 at 5-HT2C (h), at 5-HT2A (h) and at 5-HT2B (h) were 14 nM, 57 nM and 270 nM, respectively. Also, the Ki – broadly, the equilibrium dissociation constant of an inhibitor or competing ligand from its target – on 5-HT2C (h) worked out at 12 nM; on 5-HT2A (h), 43 nM; on 5-HT2B (h) it was 130 nM. For the same compound, the nH is 0.9 at 5-HT2C (h) (5-HT2C, Hill coefficient); 0.6 on 5-HT2A (h) (5-HT2A, Hill coefficient); 0.7 at 5-HT2B (h) (5-HT2B, Hill coefficient). Also, the “Mean Percent Inhibition” value at AR (h) turned out to be 3.0%. Moreover, the “PenH response to methacholine (airway hyperresponsiveness)” value in experiment [1] is given as “reduced PenH values to levels representative of normal airway function”.
The compound `COCc1cc(CCN)c(OC)cc1Br` [Compound 2CB-5MM, 2-(4-bromo-2-methoxy-5-(methoxymethyl)phenyl)ethan-1-amine] showed an EC50 on 5-HT2C of 225 nM. The “Mean Percent Inhibition” value at AR (h) is −9.2%.
